# Measured values taken from US11850247B2, “Antiviral compounds” (REGENTS OF THE UNIVERSITY OF MINNESOTA, priority 2020, dated 2023).
# Tests used:
# [1] = system: HIV-1; experiment: Anti-HIV-1 activity in TZM-GFP cells (viral LTR-activated GFP expression); assay type: cell-based; details: for EC50: Human immunodeficiency virus 1, HIV-1 strain MOI=1, GFP positive cells counted after 48 hours; for inhibition at 2 µM: Human immunodeficiency virus 1, 2 μM compound; for inhibition at 2 µM / inhibition at 20 µM: HIV-1 MOI=1; for inhibition at 20 µM: Human immunodeficiency virus 1, 20 μM compound
# Description: The potency of HIV-1 inhibition by a compound was based on its inhibitory effect on viral LTR-activated GFP expression compared with that of compound-free (DMSO) controls. Briefly, TZM-GFP cells were plated at density of 1×10^4 cells per well in a 96-well plate. 24 hours later, media was replaced with increasing concentrations of compound. 24 hours post treatment, cells were exposed to an HIV-1 strain (MOI=1).
# (§1) The cytotoxicity of each compound was also determined in TZM-GFP cells. Cells were plated at a density of 1×10^4 cells per well in a 96-well plate and were continuously exposed to increasing concentrations of a compound for 72 hours. The number of viable cells in each well was determined using a Cell Proliferation Kit II (XTT), and 50% cytotoxicity concentration (CC50) values were determined. All the cell-based assays were conducted in duplicate and in at least two independent experiments. For the EC50 and CC50 dose responses, values were plotted in GraphPad Prism 5 and analyzed with the log (inhibitor) vs. normalized response-variable slope equation. Final values were calculated in each independent assay and the average values were determined. Statistical analysis (calculation of standard deviation) was performed by using Microsoft Excel.
# [2] = Cytotoxicity in TZM-GFP cells (XTT); assay type: cell-based; details: human, 72 hours exposure, XTT
# Description: as §1
# [3] = biological target: covalently-crosslinked hexameric CA A14C/E45C/W184A/M185A (CA121) (Human immunodeficiency virus type 1 group M subtype B, UniProt P12493, A146C/E177C/M317A/W316A); experiment: Thermal shift assay (TSA), CA hexamer stability; assay type: binding, HIV-1; details: compound 20 μM, ΔTm=Tm−T0 vs DMSO
# [4] = Microsomal stability assay, human liver microsomes; assay type: in vitro ADME
# Description: (§2) The in vitro microsomal stability assay was conducted in duplicate in mouse and human liver microsomal systems, which were supplemented with nicotinamide adenine dinucleotide phosphate (NADPH) as a cofactor. […] The reaction was initiated by addition of 1 mM NADPH, followed by incubation at 37° C. A negative control was performed in parallel in the absence of NADPH to measure any chemical instability or non-NADPH dependent enzymatic degradation for each compound. At various time points (0, 5, 15, 30, and 60 minutes), 1 volume of reaction aliquot was taken and quenched with 3 volumes of acetonitrile containing an appropriate internal standard and 0.1% formic acid. The samples were then vortexed and centrifuged at 15,000 rpm for 5 minutes at 4° C. The supernatants were collected and analyzed by LC-MS/MS to determine the in vitro metabolic half-life (t1/2).
# [5] = Microsomal stability assay, mouse liver microsomes; assay type: in vitro ADME; details: NADPH
# Description: as §2
# [6] = pH 7.4, with Cobicistat 0.5 μM (CYP3A inhibitor), human liver microsomes, 1 μM compound, NADPH, with 0.5 μM Cobicistat (CYP3A inhibitor), read-out: HLM (+Cobi) half-life (t1/2)
# [7] = human liver microsomes, 1 μM compound, NADPH, without Cobicistat
# [8] = 1 μM compound, without Cobicistat
# [9] = pH 7.4, human liver microsomes, 1 μM compound, NADPH, without Cobicistat, read-out: HLM half-life (t1/2)
# [10] = pH 7.4, 1 μM compound, without Cobicistat, read-out: MLM half-life (t1/2)
# [11] = pH 7.4, with Cobicistat 0.5 μM (CYP3A inhibitor), 1 μM compound, with 0.5 μM Cobicistat (CYP3A inhibitor), read-out: MLM (+Cobi) half-life (t1/2)
SMILES,CC50 at 72 h [2] [µM],TSA ΔTm (° C.) [3] [°C],inhibition at 2 µM [1] [%],inhibition at 20 µM [1] [%],"half-life at 1 μM [4, 9] [min]","half-life at 1 μM [5, 10] [min]",other results
"O=C(Cn1c(=O)[nH]c2ccccc2c1=O)N[C@@H](Cc1ccccc1)C(=O)N1CCC[C@H]1C(=O)Nc1ccccc1 [Example 33, (S)-1-((2-(2,4-dioxo-1,4-dihydroquinazolin-3(2H)-yl)acetyl)-L-phenylalanyl)-N-phenylpyrrolidine-2-carboxamide]",> 100,2.5,,,,,"EC50 [1]: 1600 ± 100 nM; half-life in HLMs relative to PF74 ([4]; human liver microsomes, ratio of t1/2 to that of PF74): 44 fold; half-life at 1 μM [4, 6]: 578 min; half-life in combination with Cobicistat compared with PF74 ([4]; with CYP3A inhibitor Cobicistat, microsome species not given): significantly longer half-life than that of PF74"
"CN(C(=O)[C@H](Cc1ccccc1)NC(=O)CNC(=O)c1ccccc1)c1cccc(F)c1 [Example 39, (S)—N-(2-((1-((3-fluorophenyl)(methyl)amino)-1-oxo-3-phenylpropan-2-yl)amino)-2-oxoethyl)benzamide]",> 50,0,3,94,,,
"CN(C(=O)[C@H](Cc1ccccc1)NC(=O)CNC(=O)c1ccccc1)c1cccc(Br)c1 [Example 40, (S)—N-(2-((1-((3-bromophenyl)(methyl)amino)-1-oxo-3-phenylpropan-2-yl)amino)-2-oxoethyl)benzamide]",> 50,2.2,38,97,,,
"CCN(C(=O)[C@H](Cc1ccccc1)NC(=O)CNC(=O)c1ccccc1)c1ccccc1 [Example 41, (S)—N-(2-((1-(ethyl(phenyl)amino)-1-oxo-3-phenylpropan-2-yl)amino)-2-oxoethyl)benzamide]",> 50,−2.5,,,,,EC50 [1]: 2500 ± 30 nM
"Cc1cn(CC(=O)N[C@@H](Cc2ccccc2)C(=O)N(C)c2ccccc2)c(=O)[nH]c1=O [Example 42, (S)—N-methyl-2-(2-(5-methyl-2,4-dioxo-3,4-dihydropyrimidin-1(2H)-yl)acetamido)-N,3-diphenylpropanamide]",> 50,0.5,35,95,,,
"Cc1ccc(N(C)C(=O)[C@H](Cc2ccccc2)NC(=O)Cn2cc(C)c(=O)[nH]c2=O)cc1 [Example 43, (S)—N-methyl-2-(2-(5-methyl-2,4-dioxo-3,4-dihydropyrimidin-1(2H)-yl)acetamido)-3-phenyl-N-(p-tolyl)propenamide]",> 50,0.6,7,85,,,
"Cc1cn(CC(=O)N[C@@H](Cc2ccccc2)C(=O)N(C)c2ccc(Cl)cc2)c(=O)[nH]c1=O [Example 44, (S)—N-(4-chlorophenyl)-N-methyl-2-(2-(5-methyl-2,4-dioxo-3,4-dihydropyrimidin-1(2H)-yl)acetamido)-3-phenylpropanamide]",> 50,1.7,,,,,EC50 [1]: 1700 ± 200 nM
"Cc1cn(CC(=O)N[C@@H](Cc2ccccc2)C(=O)N(C)c2cccc(Cl)c2)c(=O)[nH]c1=O [Example 45, (S)—N-(3-chlorophenyl)-N-methyl-2-(2-(5-methyl-2,4-dioxo-3,4-dihydropyrimidin-1(2H)-yl)acetamido)-3-phenylpropanamide]",> 50,0.6,37,95,,,
"Cc1cn(CC(=O)N[C@@H](Cc2ccccc2)C(=O)N(C)c2ccc(F)cc2)c(=O)[nH]c1=O [Example 46, (S)—N-(4-fluorophenyl)-N-methyl-2-(2-(5-methyl-2,4-dioxo-3,4-dihydropyrimidin-1(2H)-yl)acetamido)-3-phenylpropanamide]",> 50,0,6,94,,,
"Cc1cn(CC(=O)N[C@@H](Cc2ccccc2)C(=O)N(C)c2cccc(F)c2)c(=O)[nH]c1=O [Example 47, (S)—N-(3-fluorophenyl)-N-methyl-2-(2-(5-methyl-2,4-dioxo-3,4-dihydropyrimidin-1(2H)-yl)acetamido)-3-phenylpropanamide]",> 50,0.9,0,74,,,
"Cc1cn(CC(=O)N[C@@H](Cc2ccccc2)C(=O)N(C)c2cccc(Br)c2)c(=O)[nH]c1=O [Example 48, (S)—N-(3-bromophenyl)-N-methyl-2-(2-(5-methyl-2,4-dioxo-3,4-dihydropyrimidin-1(2H)-yl)acetamido)-3-phenylpropanamide]",> 50,0.5,22,99.7,,,
"Cc1[nH]c2ccccc2c1CC(=O)N[C@@H](Cc1ccccc1)C(=O)N(C)c1ccccc1 [PF-74, reference compound]",,,,,,,"HLM half-life (t1/2) [4, 7]: less than 1 min; MLM half-life (t1/2) [5, 8]: 0.6 min; MLM half-life (t1/2) ([5]; 1 μM compound, without Cobicistat, listed as PF74): less than 1 min"
Cc1cccc2c1NC(=O)C2CC(=O)N[C@@H](Cc1ccccc1)C(=O)N(C)c1ccccc1 (stereo partly shown) [drawing 177],,,,,7,1,
Cc1cccc2c1NC(=O)C2CC(=O)N[C@@H](Cc1ccccc1)C(=O)N(C)c1cccc(F)c1 (stereo partly shown) [drawing 178],,,,,2.5,1.1,"half-life at 1 μM [4, 6]: 433 min; half-life at 1 μM [5, 11]: 20 min"
Cc1ccc(C)c2c1NC(=O)C2CC(=O)N[C@@H](Cc1ccccc1)C(=O)N(C)c1ccccc1 (stereo partly shown) [drawing 179],,,,,1.5,0.6,
Cc1ccc(C)c2c1NC(=O)C2CC(=O)N[C@@H](Cc1ccccc1)C(=O)N(C)c1cccc(Cl)c1 (stereo partly shown) [drawing 180],,,,,6.7,1.4,"half-life at 1 μM [4, 6]: 107 min; half-life at 1 μM [5, 11]: 34 min"
CN(C(=O)[C@H](Cc1ccccc1)NC(=O)Cc1ccc2ccccc2c1)c1ccccc1 [drawing 181],,,,,1.8,0.5,
CN(C(=O)[C@H](Cc1ccccc1)NC(=O)Cc1ccc2ccccc2c1)c1ccc(Cl)cc1 [drawing 182],,,,,2.7,1.4,"half-life at 1 μM [4, 6]: 239 min; half-life at 1 μM [5, 11]: 18 min"
CN(C(=O)[C@H](Cc1ccccc1)NC(=O)Cc1cccc2ccccc12)c1ccccc1 [drawing 183],,,,,0.6,0.5,
CN(C(=O)[C@H](Cc1ccccc1)NC(=O)Cc1cccc2ccccc12)c1ccc(Cl)cc1 [drawing 184],,,,,1.1,0.6,"half-life at 1 μM [4, 6]: 102 min; half-life at 1 μM [5, 11]: 7.4 min"
COc1ccc(N(C)C(=O)[C@H](Cc2ccccc2)NC(=O)CN2C(=O)NC3(CCCCC3)C2=O)cc1 [drawing 186],,,,,5.2,0.7,
Cc1ccc(N(C)C(=O)[C@H](Cc2ccccc2)NC(=O)CN2C(=O)NC3(CCCCC3)C2=O)cc1 [drawing 187],,,,,3.3,1.2,
CN(C(=O)[C@H](Cc1ccccc1)NC(=O)CN1C(=O)NC2(CCCCC2)C1=O)c1ccc(F)cc1 [drawing 188],,,,,1.1,0.5,
CN(C(=O)[C@H](Cc1ccccc1)NC(=O)CN1C(=O)NC2(CCCCC2)C1=O)c1ccc(Cl)cc1 [drawing 189],,,,,3.1,0.9,
CN(C(=O)[C@H](Cc1ccccc1)NC(=O)CNC(=O)c1ccccc1)c1ccccc1 [drawing 190],,,,,,,"HLM half-life (t1/2) [4, 7]: 15 min; MLM half-life (t1/2) [5, 8]: 3.6 min"
Cc1ccc(N(C)C(=O)[C@H](Cc2ccccc2)NC(=O)CNC(=O)c2ccccc2)cc1 [drawing 191],,,,,,,"HLM (+Cobi) half-life (t1/2) ([4]; human liver microsomes, 1 μM compound, NADPH, with 0.5 μM Cobicistat (CYP3A inhibitor)): 42 min; HLM half-life (t1/2) [4, 7]: 22 min; MLM (+Cobi) half-life (t1/2) ([5]; 1 μM compound, with 0.5 μM Cobicistat (CYP3A inhibitor)): 34 min; MLM half-life (t1/2) [5, 8]: 5.0 min"
